Source: patent US20170050957A1, “4-AMINO-6-(HETEROCYCLIC)PICOLINATES AND 6-AMINO-2-(HETEROCYCLIC)PYRIMIDINE-4-CARBOXYLATES AND THEIR USE AS HERBICIDES” (Dow AgroSciences LLC, priority 2013, published 2017)
Like-named read-outs stand apart in the source and are kept apart here. Each block holds one molecule with its values, some of them ahead of it.

Columns and labels:
[1] = system: Key Broadleaf Weed and Crop Species; assay: Post-emergent Test II herbicidal activity (Table 15); type: in vivo; conditions: post-emergence, 336 h, 14 d; for pest or weed control at 35 g/ha: 35 g ai/ha; for pest or weed control at 70 g/ha: 70 g ai/ha; for pest or weed control at 140 g/ha: 140 g ai/ha
Description: (§1) Post-emergent Test II: Seeds or nutlets of the desired test plant species were planted in Sun Gro Metro-Mix® 360 planting mixture, which typically has a pH of 6.0 to 6.8 and an organic matter content of about 30 percent, in plastic pots with a surface area of 64 square centimeters. When required to ensure good germination and healthy plants, a fungicide treatment and/or other chemical or physical treatment was applied. The plants were grown for 7-21 d in a greenhouse with an approximate 15 h photoperiod which was maintained at about 23-29° C. during the day and 22-28° C. during the night. Nutrients and water were added on a regular basis and supplemental lighting was provided with overhead metal halide 1000-Watt lamps as necessary. The plants were employed for testing when they reached the first or second true leaf stage.
(§2) A weighed amount, determined by the highest rate to be tested, of each test compound was placed in a 25 mL glass vial and was dissolved in 4 mL of a 97:3 v/v mixture of acetone and DMSO to obtain concentrated stock solutions. […] The concentrated stock solutions obtained were diluted with 20 mL of an aqueous mixture containing acetone, water, isopropyl alcohol, DMSO, Atplus 411F crop oil concentrate, and Triton® X-155 surfactant in a 48.5:39:10:1.5:1.0:0.02 v/v ratio to obtain spray solutions containing the highest application rates. Additional application rates were obtained by serial dilution of 12 mL of the high rate solution into a solution containing 2 mL of 97:3 v/v mixture of acetone and DMSO and 10 mL of an aqueous mixture containing acetone, water, isopropyl alcohol, DMSO, Atplus 411F crop oil concentrate, and Triton X-155 surfactant in a 48.5:39:10:1.5:1.0:0.02 v/v ratio to obtain 1/2×, 1/4×, 1/8× and 1/16× rates of the high rate. Compound requirements are based upon a 12 mL application volume at a rate of 187 liters per hectare (L/ha). Formulated compounds were applied to the plant material with an overhead Mandel track sprayer equipped with 8002E nozzles calibrated to deliver 187 L/ha over an application area of 0.503 square meters at a spray height of 18 inches (43 cm) above the average plant canopy height. Control plants were sprayed in the same manner with the solvent blank.
(§3) The treated plants and control plants were placed in a greenhouse as described above and watered by subirrigation to prevent wash-off of the test compounds. After 14 d, the condition of the test plants as compared with that of the untreated plants was determined visually and scored on a scale of 0 to 100 percent where 0 corresponds to no injury and 100 corresponds to complete kill.

[2] = system: Key Grass and Sedge Weeds as well as Grass Crops; assay: Post-emergent Test II herbicidal activity (Table 16); type: in vivo; conditions: post-emergence, 336 h; for pest or weed control at 35 g/ha: 35 g ai/ha; for pest or weed control at 70 g/ha: 70 g ai/ha; for pest or weed control at 140 g/ha: 140 g ai/ha
Description: as §1, §2, §3

[3] = Abutilon theophrasti, velvetleaf (Abutilon theophrasti), read-out: Visual Growth Reduction (%) 14 Days After Application, ABUTH
[4] = Amaranthus retroflexus, redroot pigweed (Amaranthus retroflexus), read-out: Visual Growth Reduction (%) 14 Days After Application, AMARE
[5] = Brassica napus, oilseed rape, canola (Brassica napus), read-out: Visual Growth Reduction (%) 14 Days After Application, BRSNN
[6] = Chenopodium album, lambsquarters (Chenopodium album), read-out: Visual Growth Reduction (%) 14 Days After Application, CHEAL
[7] = Euphorbia heterophylla, wild poinsettia (Euphorbia heterophylla), read-out: Visual Growth Reduction (%) 14 Days After Application, EPHHL
[8] = Helianthus annuus, sunflower (Helianthus annuus), read-out: Visual Growth Reduction (%) 14 Days After Application, HELAN
[9] = Cyperus esculentus, yellow nutsedge (Cyperus esculentus), 14 d, read-out: Visual Growth Reduction (%) 14 Days After Application, CYPES
[10] = Echinochloa crus-galli, barnyardgrass (Echinochloa crus-galli), 14 d, read-out: Visual Growth Reduction (%) 14 Days After Application, ECHCG
[11] = Oryza sativa, rice (Oryza sativa), 14 d, read-out: Visual Growth Reduction (%) 14 Days After Application, ORYSA
[12] = Setaria faberi, giant foxtail (Setaria faberi), 14 d, read-out: Visual Growth Reduction (%) 14 Days After Application, SETFA
[13] = Triticum aestivum, wheat, spring (Triticum aestivum), 14 d, read-out: Visual Growth Reduction (%) 14 Days After Application, TRZAS
[14] = Zea mays, maize, corn (Zea mays), 14 d, read-out: Visual Growth Reduction (%) 14 Days After Application, ZEAMX

melting point: 160 to 164 °C
SMILES: Nc1c(Cl)c(C(=O)O)nc(-c2ccc3cc[nH]c3c2)c1Cl [Compound 1.06]
pest or weed control at 35 g/ha [1, 3]: 0 to 29% | pest or weed control at 70 g/ha [1, 3]: 0 to 29% | pest or weed control at 140 g/ha [1, 3]: 0 to 29% | pest or weed control at 35 g/ha [1, 4]: 95 to 100% | pest or weed control at 70 g/ha [1, 4]: 85 to 94% | pest or weed control at 140 g/ha [1, 4]: 75 to 84% | pest or weed control at 35 g/ha [1, 5]: 75 to 84% | pest or weed control at 70 g/ha [1, 5]: 85 to 94% | pest or weed control at 140 g/ha [1, 5]: 85 to 94% | pest or weed control at 35 g/ha [1, 6]: 85 to 94% | pest or weed control at 70 g/ha [1, 6]: 95 to 100% | pest or weed control at 140 g/ha [1, 6]: 95 to 100% | pest or weed control at 35 g/ha [1, 7]: 0 to 29% | pest or weed control at 70 g/ha [1, 7]: 0 to 29% | pest or weed control at 140 g/ha [1, 7]: 0 to 29% | pest or weed control at 35 g/ha [1, 8]: 0 to 29% | pest or weed control at 70 g/ha [1, 8]: 0 to 29% | pest or weed control at 140 g/ha [1, 8]: 0 to 29%

SMILES: COC(=O)c1nc(-c2ccc3ccn([Si](C(C)C)(C(C)C)C(C)C)c3c2F)c(F)c(N)c1Cl [Compound 1.12, methyl 4-amino-3-chloro-5-fluoro-6-(7-fluoro-1-(triisopropylsilyl)-1H-indol-6-yl)picolinate]
pest or weed control at 35 g/ha [2, 9]: 0 to 29% | pest or weed control at 70 g/ha [2, 9]: 0 to 29% | pest or weed control at 140 g/ha [2, 9]: 0 to 29% | pest or weed control at 35 g/ha [2, 10]: 0 to 29% | pest or weed control at 70 g/ha [2, 10]: 0 to 29% | pest or weed control at 140 g/ha [2, 10]: 85 to 94% | pest or weed control at 35 g/ha [2, 11]: 0 to 29% | pest or weed control at 70 g/ha [2, 11]: 0 to 29% | pest or weed control at 140 g/ha [2, 11]: 0 to 29% | pest or weed control at 35 g/ha [2, 12]: 75 to 84% | pest or weed control at 70 g/ha [2, 12]: 60 to 74% | pest or weed control at 140 g/ha [2, 12]: 75 to 84% | pest or weed control at 35 g/ha [2, 13]: 45 to 59% | pest or weed control at 70 g/ha [2, 13]: 0 to 29% | pest or weed control at 140 g/ha [2, 13]: 0 to 29% | pest or weed control at 35 g/ha [2, 14]: 0 to 29% | pest or weed control at 70 g/ha [2, 14]: 0 to 29% | pest or weed control at 140 g/ha [2, 14]: 0 to 29% | melting point: 181 to 182 °C

melting point: 168 to 170 °C
SMILES: Nc1c(F)c(-c2ccc3ccoc3c2)nc(C(=O)O)c1Cl [Compound 2.08]
pest or weed control at 35 g/ha [2, 9]: 0 to 29% | pest or weed control at 70 g/ha [2, 9]: 0 to 29% | pest or weed control at 140 g/ha [2, 9]: 0 to 29% | pest or weed control at 35 g/ha [2, 10]: 85 to 94% | pest or weed control at 70 g/ha [2, 10]: 85 to 94% | pest or weed control at 140 g/ha [2, 10]: 95 to 100% | pest or weed control at 35 g/ha [2, 11]: 0 to 29% | pest or weed control at 70 g/ha [2, 11]: 30 to 44% | pest or weed control at 140 g/ha [2, 11]: 30 to 44% | pest or weed control at 35 g/ha [2, 12]: 45 to 59% | pest or weed control at 70 g/ha [2, 12]: 60 to 74% | pest or weed control at 140 g/ha [2, 12]: 85 to 94% | pest or weed control at 35 g/ha [2, 13]: 0 to 29% | pest or weed control at 70 g/ha [2, 13]: 0 to 29% | pest or weed control at 140 g/ha [2, 13]: 0 to 29% | pest or weed control at 35 g/ha [2, 14]: 45 to 59% | pest or weed control at 70 g/ha [2, 14]: 60 to 74% | pest or weed control at 140 g/ha [2, 14]: 60 to 74%

melting point: 129 to 133 °C
SMILES: COC(=O)c1nc(-c2ccc3[nH]nnc3c2)cc(N)c1Cl [Compound 9.01]
pest or weed control at 140 g/ha ([2]; Cyperus esculentus, yellow nutsedge (Cyperus esculentus), 14 days after application, read-out: Visual Growth Reduction (%) 14 Days After Application CYPES): 95 to 100% | pest or weed control at 140 g/ha ([2]; Echinochloa crus-galli, barnyardgrass (Echinochloa crus-galli), 14 days after application, read-out: Visual Growth Reduction (%) 14 Days After Application ECHCG): 95 to 100% | pest or weed control at 140 g/ha ([2]; Oryza sativa, rice (Oryza sativa), 14 days after application, read-out: Visual Growth Reduction (%) 14 Days After Application ORYSA): 0 to 29% | pest or weed control at 140 g/ha ([2]; Setaria faberi, giant foxtail (Setaria faberi), 14 days after application, read-out: Visual Growth Reduction (%) 14 Days After Application SETFA): 0 to 29% | pest or weed control at 140 g/ha ([2]; Triticum aestivum, wheat, spring (Triticum aestivum), 14 days after application, read-out: Visual Growth Reduction (%) 14 Days After Application TRZAS): 0 to 29% | pest or weed control at 140 g/ha ([2]; Zea mays, maize, corn (Zea mays), 14 days after application, read-out: Visual Growth Reduction (%) 14 Days After Application ZEAMX): 0 to 29%
